System: rice seedlings
Assay: Rice yield test
Format: in vivo
Settings: for Average yield: average of nine bunches
Description: A predetermined amount of chemicals was weighed and embedded into soil together with roots of rice seedlings when the seedlings are planted in a paddy field in early May. […] Nine bunches were planted per one test field. After that, usual wet-rice culture was carried out until harvesting in early October. The rice crop was dried and weighed to determine the yield. Good unhusked rice obtained by wind selection was used as the test sample.

SMILES: O=P([O-])(O)O.O=P([O-])(O)O.[Ca+2] [Calcium dihydrogen phosphate]
- Average yield (treated amount 1 g per 1 m^2, good unhusked rice): 196 g
- Average yield (%) (treated amount 1 g per 1 m^2, untreated = 100): (90) %
- Average yield (treated amount 10 g per 1 m^2, good unhusked rice): 230 g
- Average yield (%) (treated amount 10 g per 1 m^2, untreated = 100): (105) %

Reference: patent US20080271368A1, “METHOD OF PROMOTING PLANT GROWTH AND IMPROVING PLANT QUALITY AND GROWTH-PROMOTING AGENT AND QUALITY-IMPROVING AGENT TO BE USED IN THE METHOD” (priority 2006, published 2008)
